Consider four molecules from patent publication EP3046573B1, “AMYLIN ANALOGUES” (Zealand Pharma A/S, priority 2013, dated 2015).

Test [1] has as its target T1, human calcitonin receptor (hCTR2) (Homo sapiens, UniProt P30988).
T1 construct: expressed in transfected cells
T1 sequence (P30988 25-474): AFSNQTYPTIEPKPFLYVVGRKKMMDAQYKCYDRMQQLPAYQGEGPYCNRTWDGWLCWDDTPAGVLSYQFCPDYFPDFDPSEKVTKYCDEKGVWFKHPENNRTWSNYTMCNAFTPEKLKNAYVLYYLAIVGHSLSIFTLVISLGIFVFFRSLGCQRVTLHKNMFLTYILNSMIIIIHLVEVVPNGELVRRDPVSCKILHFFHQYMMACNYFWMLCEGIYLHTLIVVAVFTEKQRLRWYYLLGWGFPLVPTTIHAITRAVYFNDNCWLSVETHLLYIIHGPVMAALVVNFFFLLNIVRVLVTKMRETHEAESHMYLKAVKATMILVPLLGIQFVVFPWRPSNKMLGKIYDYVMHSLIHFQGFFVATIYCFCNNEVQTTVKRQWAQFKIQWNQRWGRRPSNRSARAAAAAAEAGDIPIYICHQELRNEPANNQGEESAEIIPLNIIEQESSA
The test is described as follows: hCTR2 assay: induction of cAMP (AlphaScreen cAMP Assay kit) in COS7 cells expressing hCTR2. It is filed as cell-based. The conditions noted are these: cAMP induction in COS7 cells expressing hCTR2; average of a minimum of 3 determinations; read-out: hCTR2 EC50. The essentials:
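COS7 stable hCTR2 clone (RAMP-free); peptide dose-response 15 min 37° C in Tyrode pH 7.4 + 100 µM IBMX + 0.1% casein; lysis 10 min RT; AlphaScreen cAMP; 4PL fit.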
Background: Bead proximity is the source of the signal in Alpha formats.

Test [2] concerns the target T2, human amylin receptor 3 (hAMYR3) consisting of hCTR2 co-expressed with human Receptor Activity Modifying Protein 3 (hRAMP3) (Homo sapiens, UniProt O60896+P30988).
T2 construct: expressed in transfected cells
T2 sequence (P30988 25-474): T1 sequence (P30988 25-474)
T2 sequence (O60896 24-148 partner): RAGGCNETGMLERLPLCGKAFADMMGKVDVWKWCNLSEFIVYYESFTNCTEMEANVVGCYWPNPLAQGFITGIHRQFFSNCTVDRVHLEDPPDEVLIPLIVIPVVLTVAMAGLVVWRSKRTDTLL
Nature of the test: hAMYR3 assay: induction of cAMP (AlphaScreen cAMP Assay kit) in COS7 cells expressing hAMYR3. It is filed as cell-based. The settings on record: cAMP induction in COS7 cells expressing hAMYR3; average of a minimum of 3 determinations; read-out: hAMY R3 EC50. From the text: The cell line COS7, originating from African Green Monkey kidney fibroblast cells, was used for establishment of the stable cell lines described below. The COS7 cellular background was used due to it being RAMP naive, and as such it provides the best available system for testing of the monomeric hCTR and different heterodimeric amylin receptor subtypes functionally generated by introduction of the individual RAMPs.
A cell line expressing the human amylin receptor 3 (hAMYR3) was generated in the COS7 cellular background as stable clones. In brief, hCTR2 (GI:4502547) and hRAMP3 (GI:118572586) were amplified by PCR using primers encoding terminal restriction sites for subcloning. The 5'-end primers additionally encoded a near Kozak consensus sequence to ensure efficient translation. The fidelity of the DNA encoding the receptor was confirmed by DNA sequencing. The PCR products encoding the receptor were subcloned into a proprietary tri-cistronic mammalian expression vector with RAMP3, hCTR2 and neomycin (G418) resistance marker. The mammalian expression vector encoding the receptor was transfected into COS7 cells by a standard liposome transfection method. 48 hours post-transfection, cells were seeded for limited dilution cloning and selected with 1 mg/ml G418 in the culture medium. After 3 weeks, surviving colonies of hAMY3R-expressing cells were picked, propagated and tested in the amylin efficacy assay as described in Example 3 below. The functional generation of the amylin receptor phenotype was verified in the efficacy assay by a left-shifted efficacy response to amylin relative to monomeric calcitonin receptor, and one hAMYR3-expressing clone was chosen for compound profiling.
In vitro activity of test peptides at the hCTR2 and hAMYR3 receptors was assessed by measuring the induction of cAMP following stimulation of the receptor by pramlintide or peptides of the invention using the AlphaScreen® cAMP Assay kit from Perkin-Elmer.
Briefly, COS7 cells expressing hCTR2 (see Example 2, above) were seeded at 30-40,000 cells per well in 96-well microtiter plates coated with 0.01 % poly-L-lysine, and grown for 1 day in culture in 100 µl growth medium [DMEM, 10% FCS, Penicillin (100 IU/ml), Streptomycin (100 µg/ml)]. On the day of analysis, growth medium was removed and the cells were washed once with 200 µl Tyrode buffer [Tyrode's Salts (9.6 g/l), 10 mM HEPES, pH 7.4]. Cells were incubated in 100 µl Tyrode buffer containing increasing concentrations of test peptides, 100 µM IBMX and 0.1% casein for 15 min at 37° C. The reaction was stopped by carefully decanting off the compound/buffer medium and replacing it with lysis/detection buffer (80 µl 0.1 % w/v BSA, 5 mM HEPES, 0.3 % v/v Tween-20 in deionized water). After incubation at room temperature for 10 min., the cAMP content of the resulting cell lysate was estimated according to the AlphaScreen® cAMP Assay manufacturer's instructions. EC50 values and relative efficacy values (in %) compared to reference peptide (Pramlintide) were estimated by computer-aided curve fitting using the 4-parameter logistic (4PL) non-linear model.
The in vitro activity results (expressed as EC50 values) for peptides of the invention and for Pramlintide (reference peptide) are summarized in Table 2, below.

Each structure is given as a SMILES string. Numbered stars: 1 amine (or outer) side, 2 acyl side, 3 side chain; on linkers, the order of the positions; unused ones are H or OH. Bridge positions count the residues as written; N and C are the ends. Square brackets hold non-standard residues; d marks the D form. Peptide text beside a SMILES is read from it. * marks the point of attachment. C20 diacid = O=C(O)CCCCCCCCCCCCCCCCCCC(=O)*; γGlu = O=C(O)[C@H](CCC(=O)[*:2])N[*:1]; Hyp = O=C(O)[C@@H]1C[C@@H](O)CN1; NMeI = CC[C@H](C)[C@H](NC)C(=O)O; Sar = CNCC(=O)O

Broadly, the EC50 is the concentration needed to bring the measured effect to its halfway point. On to `CC[C@H](C)[C@@H](C(=O)N[C@@H](CC(C)C)C(=O)N[C@@H](CO)C(=O)N[C@@H](CO)C(=O)N[C@H](C(=O)N[C@@H](CCC(=O)O)C(=O)N[C@H](C(=O)NCC(=O)N[C@@H](CO)C(=O)N[C@@H](CCC(=O)O)C(=O)N[C@H](C(=O)N1CCC[C@H]1C(N)=O)[C@@H](C)O)C(C)C)[C@@H](C)O)N(C)C(=O)[C@H](C)NC(=O)CN(C)C(=O)[C@H](Cc1ccccc1)NC(=O)[C@H](CO)NC(=O)[C@H](CO)NC(=O)[C@H](CO)NC(=O)[C@H](CO)NC(=O)[C@H](CCCNC(=N)N)NC(=O)[C@H](Cc1c[nH]cn1)NC(=O)[C@H](CC(C)C)NC(=O)[C@H](Cc1ccccc1)NC(=O)[C@H](CCC(=O)O)NC(=O)[C@H](C)NC(=O)[C@H](CC(C)C)NC(=O)[C@H](CCCNC(=N)N)NC(=O)[C@@H]1CCCN1C(=O)[C@@H](NC(=O)[C@H](C)NC(=O)[C@@H]1CSSC[C@H](NC(=O)[C@H](CCCNC(=N)N)NC(=O)CC[C@H](NC(=O)CCCCCCCCCCCCCCCCCCC(=O)O)C(=O)O)C(=O)N[C@@H](CC(N)=O)C(=O)N[C@@H]([C@@H](C)O)C(=O)N[C@@H](C)C(=O)N[C@@H]([C@@H](C)O)C(=O)N1)[C@@H](C)O` [Compound 142, [19CD]-isoGlu-RC()NTATC()ATPRLAEFLHRSSSSF-Gly(Me)-A-Ile(Me)-LSSTEVGSETP-NH2] ({C20 diacid-γGlu}-RCNTATCATPRLAEFLHRSSSSF[Sar]A[NMeI]LSSTEVGSETP-NH2; disulfide 2-7), for which the EC50 stood at 0.14 nM in test [1] and 0.29 nM in test [2].

Turning to `CC[C@H](C)[C@@H](C(=O)N[C@@H](CC(C)C)C(=O)N[C@@H](CO)C(=O)N[C@@H](CO)C(=O)N[C@H](C(=O)N[C@@H](CCC(=O)O)C(=O)N[C@H](C(=O)NCC(=O)N[C@@H](CO)C(=O)N[C@@H](CCC(=O)O)C(=O)N[C@H](C(=O)N1C[C@H](O)C[C@H]1C(N)=O)[C@@H](C)O)C(C)C)[C@@H](C)O)N(C)C(=O)[C@H](C)NC(=O)CN(C)C(=O)[C@H](Cc1ccccc1)NC(=O)[C@H](CO)NC(=O)[C@H](CO)NC(=O)[C@H](CCCNC(=N)N)NC(=O)[C@H](Cc1c[nH]cn1)NC(=O)[C@H](CC(C)C)NC(=O)[C@H](Cc1ccccc1)NC(=O)[C@H](CCC(=O)O)NC(=O)[C@H](C)NC(=O)[C@H](CC(C)C)NC(=O)[C@H](CCCNC(=N)N)NC(=O)[C@H](CCC(=O)O)NC(=O)[C@@H](NC(=O)[C@H](C)NC(=O)[C@@H]1CSSC[C@H](NC(=O)[C@H](Cc2c[nH]c3ccccc23)NC(=O)CC[C@H](NC(=O)CCCCCCCCCCCCCCCCCCC(=O)O)C(=O)O)C(=O)NCC(=O)N[C@@H]([C@@H](C)O)C(=O)N[C@@H](C)C(=O)N[C@@H]([C@@H](C)O)C(=O)N1)[C@@H](C)O` [Compound 164, [19CD]-isoGlu-WC()GTATC()ATERLAEFLHRSSF-Gly(Me)-A-Ile(Me)-LSSTEVGSET-Hyp-NH2] ({C20 diacid-γGlu}-WCGTATCATERLAEFLHRSSF[Sar]A[NMeI]LSSTEVGSET[Hyp]-NH2; disulfide 2-7), the results for the EC50 in test [1] and in test [2] were 0.1 nM and 0.27 nM, respectively.

On to `CC[C@H](C)[C@@H](C(=O)N[C@@H](CC(C)C)C(=O)N[C@@H](CO)C(=O)N[C@@H](CO)C(=O)N[C@H](C(=O)N[C@@H](CCC(=O)O)C(=O)N[C@H](C(=O)NCC(=O)N[C@@H](CO)C(=O)N[C@@H](CCC(=O)O)C(=O)N[C@H](C(=O)N1C[C@H](O)C[C@H]1C(N)=O)[C@@H](C)O)C(C)C)[C@@H](C)O)N(C)C(=O)CN(C)C(=O)[C@H](Cc1ccccc1)NC(=O)[C@H](CO)NC(=O)[C@H](CO)NC(=O)[C@H](CO)NC(=O)[C@H](CO)NC(=O)[C@H](CCCNC(=N)N)NC(=O)[C@H](Cc1c[nH]cn1)NC(=O)[C@H](CC(C)C)NC(=O)[C@H](Cc1ccccc1)NC(=O)[C@H](CCC(=O)O)NC(=O)[C@H](C)NC(=O)[C@H](CC(C)C)NC(=O)[C@H](CCCNC(=N)N)NC(=O)[C@H](CCC(=O)O)NC(=O)[C@@H](NC(=O)[C@H](C)NC(=O)[C@@H]1CSSC[C@H](NC(=O)[C@H](CCCCN)NC(=O)[C@H](CCCCN)NC(=O)CC[C@H](NC(=O)CCCCCCCCCCCCCCCCCCC(=O)O)C(=O)O)C(=O)N[C@@H](CCC(=O)O)C(=O)N[C@@H]([C@@H](C)O)C(=O)N[C@@H](C)C(=O)N[C@@H]([C@@H](C)O)C(=O)N1)[C@@H](C)O` [Compound 169, [19CD]-isoGlu-KKC()ETATC()ATERLAEFLHRSSSSF-Gly(Me)-Ile(Me)-LSSTEVGSET-Hyp-NH2] ({C20 diacid-γGlu}-KKCETATCATERLAEFLHRSSSSF[Sar][NMeI]LSSTEVGSET[Hyp]-NH2; disulfide 3-8), for which the EC50 was 3.5 nM in test [1] and 0.64 nM in test [2].

As to `CC[C@H](C)[C@@H](C(=O)N[C@@H](CC(C)C)C(=O)N[C@@H](CO)C(=O)N[C@@H](CO)C(=O)N[C@H](C(=O)N[C@@H](CCC(=O)O)C(=O)N[C@H](C(=O)NCC(=O)N[C@@H](CO)C(=O)N[C@@H](CCC(=O)O)C(=O)N[C@H](C(=O)N1C[C@H](O)C[C@H]1C(N)=O)[C@@H](C)O)C(C)C)[C@@H](C)O)N(C)C(=O)[C@H](C)NC(=O)CN(C)C(=O)[C@H](Cc1ccccc1)NC(=O)[C@H](CO)NC(=O)[C@H](CO)NC(=O)[C@H](CO)NC(=O)[C@H](CO)NC(=O)[C@H](CCCNC(=N)N)NC(=O)[C@H](Cc1c[nH]cn1)NC(=O)[C@H](CC(C)C)NC(=O)[C@H](Cc1ccccc1)NC(=O)[C@H](CCC(=O)O)NC(=O)[C@H](C)NC(=O)[C@H](CC(C)C)NC(=O)[C@H](CCCNC(=N)N)NC(=O)[C@H](CCC(=O)O)NC(=O)[C@@H](NC(=O)[C@H](C)NC(=O)[C@@H]1CSSC[C@H](NC(=O)[C@H](CCCNC(=N)N)NC(=O)CC[C@H](NC(=O)CCCCCCCCCCCCCCCCCCC(=O)O)C(=O)O)C(=O)N[C@@H](CCC(=O)O)C(=O)N[C@@H]([C@@H](C)O)C(=O)N[C@@H](C)C(=O)N[C@@H]([C@@H](C)O)C(=O)N1)[C@@H](C)O` [Compound 170, [19CD]-isoGlu-RC()ETATC()ATERLAEFLHRSSSSF-Gly(Me)-A-Ile(Me)-LSSTEVGSET-Hyp-NH2] ({C20 diacid-γGlu}-RCETATCATERLAEFLHRSSSSF[Sar]A[NMeI]LSSTEVGSET[Hyp]-NH2; disulfide 2-7), the figures for the concentration for a half-maximal effect (EC50) in test [1] and in test [2] were 0.65 nM and 0.57 nM, respectively.
